Assays:
nude mice [1] = assay: Recovery of skin barrier damage (TEWL) in nude mice with acute skin barrier disruption; assay type: in vivo, mouse; conditions: D-Squame acute barrier damage, topical coating, TEWL at 0 h, 3 h, 6 h, 24 h, FIG. 2
Protocol: Skin barriers of nude mice were acutely damaged, and then effects of the new material represented in Example on recovery of acute skin barriers were assessed. D-Squame was used to induce skin barrier damage to left and right back regions of 6-8 week aged nude mice. Here, all the experimental groups were maintained to have no difference in trans epidermal water loss (TEWL) through measurement of the trans epidermal water loss (TEWL), and then vehicle (PEG:EtOH=7:3) and the new material represented in the example were coated thereon. The trans epidermal water loss (TEWL) was measured at the time of 0 h, 3 h, 6 h, and 24 h to confirm recovery of the skin barrier, and skin biopsies were conducted at the respective time, to thereby implement histological examination and other examinations.

CRAMP = assay: Expression of antimicrobial peptide (CRAMP) in the skin of the atopic dermatitis animal model (immunohistochemistry); assay type: in vivo, mouse; conditions: animal model with atopic dermatitis, coated for four days; FIG. 4
Text: An animal model with atopic dermatitis was constructed by coating the abdomens of 6-8 week aged nude mice with 5% oxazolone solution one time for percutaneous sensitization; after week, with 0.1% oxazolone solution every other day, six times, and 1% oxazolone solution every other day, four times. It has been reported that in the case of the animal model with atopic dermatitis using oxazolone, antimicrobial peptides were reduced in the skin (Man M-Q, Hatano Y, Lee S H, et al. Characterization of a hepten-induced, murine model with multiple features of atopic dermatitis: structural, immunologic, and biochemical changes following single versus multiple oxazolone challenges. J Invest Dermatol (2008) 128, 79-86). The skin of the animal model with atopic dermatitis constructed as above was coated with vehicle (PEG:EtOH=7:3) and Compound 1a of Example 1 diluted with the vehicle at a concentration of 0.1% once in the morning and in the afternoon for a total of four days. On the last day, thickness of the skin was measured. […]
The new compound synthesized according to Example 1 was coated for four days, and then skin tissue biopsy was conducted to form a paraffin block. […] After the reaction was completed, expression of CRAMP in the corneum of the skin was measured through a microscope. […]

LL-37 = assay: Promotion of secretion/expression of LL-37 in cultured human keratinocytes (RT-PCR, real-time PCR); assay type: cell-based; conditions: cultured human keratinocyte (HaCaT), 24 hours, with 1.7 mM calcium chloride; FIG. 1
Protocol: (§1) A medium containing 1% penicillin/streptomycin but not serum was used to culture human keratinocyte (HaCaT). The human keratinocyte was cultured in a 5% CO2 incubator at 37° C. The cells were seeded in each well of a 6-well plate at 3×10^5 cells/well, and then cultured for 48 hours. 1.7 mM calcium chloride and the new material synthesized from Example 1 were added thereto, and the cells were allowed to culture for 24 hours.
(§2) For assessment, at least one untreated control and at least one positive control were used together. 2.5 ng/mL of lipopolysaccharides (LPS), which is known to promote expression of hBD-2 and LL-37, was used as the positive control, and was allowed to react. After the reaction was completed, a supernatant was collected, and then the cells were washed with phosphate buffer saline (PBS) and collected by using a trypsin-EDTA solution, and stored in a tube. 1 ml of a triazole reagent was added to extract mRNA. […] The diluted RNA was analyzed at a wavelength between 260 nm and 280 nm, and quantitated. […]
(§3) 12.5 μl of PCR premix, 2 μl of primer sense (10 uM), 2 μl of primer antisense (10 uM), 1.5 μl of cDNA, and 7 μl of distilled water were inputted, and then PCR was carried out. […] The sample was migrated and then read out under UV in a dark room, and digitally photographed. Photos of the gel were analyzed by image processing software which quantifies the band intensities. […]

nude mice [2] = assay: Efficacy assessment on oxazolone animal model with atopic dermatitis (skin thickness); assay type: in vivo, mouse
Text: An animal model with atopic dermatitis was constructed by coating the abdomens of 6-8 week aged nude mice with 5% oxazolone solution one time for percutaneous sensitization; after week, with 0.1% oxazolone solution every other day, six times, and 1% oxazolone solution every other day, four times. It has been reported that in the case of the animal model with atopic dermatitis using oxazolone, antimicrobial peptides were reduced in the skin (Man M-Q, Hatano Y, Lee S H, et al. Characterization of a hepten-induced, murine model with multiple features of atopic dermatitis: structural, immunologic, and biochemical changes following single versus multiple oxazolone challenges. J Invest Dermatol (2008) 128, 79-86). The skin of the animal model with atopic dermatitis constructed as above was coated with vehicle (PEG:EtOH=7:3) and Compound 1a of Example 1 diluted with the vehicle at a concentration of 0.1% once in the morning and in the afternoon for a total of four days. On the last day, thickness of the skin was measured. Corticosteroid based drug, Dexamethasone, which is an effective anti-inflammatory agent, was used as a positive control.

[3] = system: human β-defensin-2 (hBD-2); assay: Promotion of secretion/expression of β-defensin-2 in cultured human keratinocytes (RT-PCR, real-time PCR); assay type: cell-based; conditions: cultured human keratinocyte (HaCaT), 24 hours, with 1.7 mM calcium chloride; FIG. 1
Protocol: as §1, §2, §3

For CCCCCC(=O)N[C@@H](Cc1ccc(O)cc1)C(=O)OC [Chemical Formula (Ia), (S)-Methyl 2-(hexanamido)-3-(4-hydroxyphenyl)propanoate], the skin barrier recovery (nude mice [1]) was “significantly promoted”, the melting point was 96 °C and the “expression of antimicrobial peptides in the skin” value (CRAMP) was “increased”. For the same molecule, the “secretion of LL-37” value (LL-37) was “promotes secretion”, the skin barrier function (nude mice [2]; animal model with atopic dermatitis, topical application) was “improved” and the anti-inflammatory efficacy (nude mice [2]; oxazolone atopic dermatitis nude mice, 0.1% in PEG:EtOH=7:3, coated twice daily for four days, skin thickness, FIG. 3) was “improved”. For the same molecule, the “secretion of β-defensin-2” value [3] was “promotes secretion”.
